Measurements: patent US10294202B2, “Pyrrolidinones as herbicides” (FMC Corporation, priority 2013, dated 2019)

Legend:
[1] = tested on: velvetleaf; experiment: Test C pre-/postemergence herbicide test; format: in vivo, Abutilon theophrasti
Method in brief: (§1)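 Visual rating, 0 (no effect) to 100 (complete control), versus untreated controls after 13 to 15 days in the greenhouse. Pre: seeds in loam/sand, sprayed at planting. Post: 1- to 4-leaf plants (2 to 18 cm) in peat-based mix. Compounds in non-phytotoxic solvent plus surfactant.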

[2] = tested on: pigweed; experiment: Test A pre-/postemergence herbicide test; format: in vivo, Amaranthus retroflexus
Method in brief: (§2)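 Seeds sown in loam soil/sand blend received a preemergence directed soil spray of test chemical in non-phytotoxic solvent with surfactant; postemergence plants (2–10 cm, one- to two-leaf stage) were sprayed with the same formulation. After about 10 days in greenhouse, injury was rated visually versus untreated controls, 0 (no effect) to 100 (complete control).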

[3] = tested on: oilseed rape; experiment: Test C pre-/postemergence herbicide test; format: in vivo, Brassica napus
Method in brief: as §1

[4] = tested on: rice; experiment: Test B flooded paddy test; format: in vivo, Oryza sativa; conditions: 250 g ai/ha, Flood; scale of 0 to 100 where 0 is no effect and 100 is complete control
Method in brief: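 Plants were grown to the 2-leaf stage, then pots were flooded to 3 cm above the soil and compound was applied directly into the paddy water, with that depth held throughout. After 13 to 15 days in a greenhouse, injury was rated visually against untreated controls on a 0 to 100 scale (100 = complete control).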

[5] = tested on: corn; experiment: Test A pre-/postemergence herbicide test; format: in vivo, Zea mays
Method in brief: as §2

[6] = tested on: foxtail, giant; experiment: Test C pre-/postemergence herbicide test; format: in vivo, Setaria faberii
Method in brief: as §1

[7] = tested on: blackgrass; experiment: Test C pre-/postemergence herbicide test; format: in vivo, Alopecurus myosuroides
Method in brief: as §1

[8] = tested on: johnsongrass; experiment: Test C pre-/postemergence herbicide test; format: in vivo, Sorghum halepense
Method in brief: as §1

[9] = tested on: barnyardgrass; experiment: Test A pre-/postemergence herbicide test; format: in vivo, Echinochloa crus-galli
Method in brief: as §2

[10] = tested on: giant foxtail; experiment: Test A pre-/postemergence herbicide test; format: in vivo, Setaria faberii
Method in brief: as §2

[11] = tested on: nutsedge, yellow; experiment: Test C pre-/postemergence herbicide test; format: in vivo, Cyperus esculentus
Method in brief: as §1

[12] = Postemergence, 31 g ai/ha, scale 0 (no effect) to 100 (complete control)
[13] = Postemergence, 62 g ai/ha, scale 0 to 100 (0 no effect, 100 complete control)
[14] = Postemergence, 125 g ai/ha, scale 0 to 100 (0 no effect, 100 complete control)
[15] = Postemergence, 250 g ai/ha, scale 0 to 100 (0 no effect, 100 complete control)
[16] = Preemergence, 31 g ai/ha, scale 0 to 100, 0 is no effect and 100 is complete control
[17] = Preemergence, 62 g ai/ha, scale 0 to 100
[18] = Preemergence, 125 g ai/ha, scale 0 to 100 (0 no effect, 100 complete control)
[19] = Postemergence, 125 g ai/ha, 0 to 100 scale, 0 no effect, 100 complete control
[20] = Postemergence, 500 g ai/ha, 0 to 100 scale (0 no effect, 100 complete control)
[21] = Preemergence, 125 g ai/ha, visual rating on 0 to 100 scale (0 no effect, 100 complete control)
[22] = preemergence, 500 g ai/ha, 0 to 100 scale

O=C1NCC(c2ccc(F)c(C(F)(F)F)c2)C1C(=O)Nc1ccccc1F (racemic) [Compound 76]
75: Plant response rating (scale of 0 to 100), Oilseed Rape ([3]; Preemergence, 250 g ai/ha)
60: Plant response rating, Pigweed [2, 20]
20: Plant response rating, Foxtail, Giant [6, 14] | Johnsongrass plant response rating [8, 16] | Plant response rating, Nutsedge, Yellow [11, 18]
25: Plant response rating, Velvetleaf [1, 18]
5: Plant response rating, Foxtail, Giant [6, 13]
10: Plant response rating, Oilseed Rape [3, 15] | Plant response rating, Blackgrass [7, 15]
90: Foxtail, Giant plant response rating [6, 16] | Plant response rating, Barnyardgrass [9, 20] | Foxtail, Giant plant response rating [10, 21] | Plant response rating, Foxtail, Giant [10, 22]
55: Plant response rating (scale of 0 to 100), Nutsedge, Yellow ([11]; Preemergence, 250 g ai/ha)
40: Plant response rating, Corn [5, 19] | Plant response rating, Corn [5, 22]
45: Plant response rating, Johnsongrass [8, 17] | Plant response rating, Johnsongrass [8, 18]
0: Plant response rating, Velvetleaf [1, 12] | Plant response rating, Velvetleaf [1, 13] | Plant response rating, Velvetleaf [1, 14] | Plant response rating, Velvetleaf [1, 15] | Velvetleaf plant response rating [1, 16] | Plant response rating, Velvetleaf [1, 17] | Pigweed plant response rating [2, 21] | Plant response rating, Oilseed Rape [3, 12] | Plant response rating, Oilseed Rape [3, 13] | Plant response rating, Oilseed Rape [3, 14] | Oilseed Rape plant response rating [3, 16] | Plant response rating, Oilseed Rape [3, 17] | Plant response rating, Rice [4] | Corn plant response rating [5, 21] | Plant response rating, Foxtail, Giant [6, 12] | Plant response rating, Blackgrass [7, 12] | Plant response rating, Blackgrass [7, 13] | Plant response rating, Blackgrass [7, 14] | Plant response rating, Johnsongrass [8, 12] | Plant response rating, Johnsongrass [8, 13] | Plant response rating, Johnsongrass [8, 14] | Plant response rating, Johnsongrass [8, 15] | Plant response rating, Nutsedge, Yellow [11, 12] | Plant response rating, Nutsedge, Yellow [11, 13] | Plant response rating, Nutsedge, Yellow [11, 14] | Plant response rating, Nutsedge, Yellow [11, 15] | Nutsedge, Yellow plant response rating [11, 16] | Plant response rating, Nutsedge, Yellow [11, 17]
30: Plant response rating, Oilseed Rape [3, 18]
50: Plant response rating, Pigweed [2, 19] | Plant response rating, Pigweed [2, 22] | Blackgrass plant response rating [7, 16] | Plant response rating, Blackgrass [7, 17]
95: Plant response rating, Foxtail, Giant [6, 17] | Plant response rating, Foxtail, Giant [6, 18]
35: Plant response rating (scale of 0 to 100), Velvetleaf ([1]; Preemergence, 250 g ai/ha)
70: Plant response rating, Corn [5, 20] | Plant response rating, Foxtail, Giant [6, 15]
98: Plant response rating (scale of 0 to 100), Foxtail, Giant ([6]; Preemergence, 250 g ai/ha)
80: Plant response rating, Blackgrass [7, 18] | Plant response rating (scale of 0 to 100), Blackgrass ([7]; Preemergence, 250 g ai/ha) | Plant response rating (scale of 0 to 100), Johnsongrass ([8]; Preemergence, 250 g ai/ha) | Plant response rating, Barnyardgrass [9, 19] | Barnyardgrass plant response rating [9, 21] | Plant response rating, Barnyardgrass ([9]; preemergence, 500 g ai/ha, 0 to 100 scale (0 no effect, 100 complete control)) | Plant response rating, Foxtail, Giant [10, 19] | Plant response rating, Foxtail, Giant [10, 20]
